Columns and labels:
Type in all cases: in vivo
[1] = system: Alopecurus myosuroides (ALOMY); experiment: Pre-emergence herbicidal activity, glasshouse pot test; design: key: 5=total damage to plant; 0=no damage to plant; details: 1000 g/ha, pre-emergence spray, evaluated after 13 days, damage score 0-5
Method in brief: (§1)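 In a glasshouse pot test (24/16 °C day/night, 14 h light, 65% humidity), sown seeds are sprayed after one day with formulated compound (acetone/water 50:50, 0.5% Tween 20). Plants are watered twice daily and assessed at day 13, where 5 means total damage and 0 none.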

Avena fatua (AVEFA) [2] = experiment: as above; design: key: 5=total damage to plant; 0=no damage to plant; details: 1000 g/ha, pre-emergence spray, evaluated after 13 days, damage score 0-5
Method in brief: as §1

[3] = system: Echinochloa crus-galli (ECHCG); experiment: as above; design: key: 5=total damage to plant; 0=no damage to plant; details: 1000 g/ha, pre-emergence spray, evaluated after 13 days, damage score 0-5
Method in brief: as §1

Lolium perenne (LOLPE) [4] = experiment: as above; design: key: 5=total damage to plant; 0=no damage to plant; details: 1000 g/ha, pre-emergence spray, evaluated after 13 days, damage score 0-5
Method in brief: as §1

Setaria faberi (SETFA) [5] = experiment: as above; design: key: 5=total damage to plant; 0=no damage to plant; details: 1000 g/ha, pre-emergence spray, evaluated after 13 days, damage score 0-5
Method in brief: as §1

[6] = system: Triticum aestivium (TRZAW); experiment: as above; design: key: 5=total damage to plant; 0=no damage to plant; details: 1000 g/ha, pre-emergence spray, evaluated after 13 days, damage score 0-5
Method in brief: as §1

[7] = system: Alopecurus myosuroides (ALOMY); experiment: Post-emergence herbicidal activity, glasshouse pot test; design: key: 5=total damage to plant; 0=no damage to plant; details: 1000 g/ha, post-emergence spray after 8 days cultivation, evaluated after 13 days, damage score 0-5
Method in brief: (§2)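 Scores on a 0–5 scale (5 = total damage, 0 = no damage), read 13 days after spraying. Plants were treated post-emergence at 8 days old with an acetone/water (50:50) solution containing 0.5% Tween 20, and were held at 24/16° C, 14 h light and 65% humidity.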

[8] = system: Echinochloa crus-galli (ECHCG); experiment: as above; design: key: 5=total damage to plant; 0=no damage to plant; details: 1000 g/ha, post-emergence spray after 8 days cultivation, evaluated after 13 days, damage score 0-5
Method in brief: as §2

Lolium perenne (LOLPE) [9] = experiment: as above; design: key: 5=total damage to plant; 0=no damage to plant; details: 1000 g/ha, post-emergence spray after 8 days cultivation, evaluated after 13 days, damage score 0-5
Method in brief: as §2

Setaria faberi (SETFA) [10] = experiment: as above; design: key: 5=total damage to plant; 0=no damage to plant; details: 1000 g/ha, post-emergence spray after 8 days cultivation, evaluated after 13 days, damage score 0-5
Method in brief: as §2

[11] = system: Triticum aestivium (TRZAW); experiment: as above; design: key: 5=total damage to plant; 0=no damage to plant; details: 1000 g/ha, post-emergence spray after 8 days cultivation, evaluated after 13 days, damage score 0-5
Method in brief: as §2

Avena fatua (AVEFA) [12] = experiment: as above; details: 1000 g/ha, post-emergence spray after 8 days cultivation, evaluated after 13 days, damage score 0-5
Method in brief: as §2

O=C(Nc1cnc(-c2cncc(F)c2)nc1C(F)(F)F)C(Cl)(Cl)Cl [Compound F5]
Control of weed species after pre-emergence application, ALOMY [1]: 0
Control of weed species after pre-emergence application, AVEFA (Avena fatua (AVEFA) [2]): 1
Control of weed species after pre-emergence application, ECHCG [3]: 3
Control of weed species after pre-emergence application, LOLPE (Lolium perenne (LOLPE) [4]): 0
Control of weed species after pre-emergence application, SETFA (Setaria faberi (SETFA) [5]): 5
Control of weed species after pre-emergence application, TRAZW [6]: 0
Control of weed species after post-emergence application, ALOMY [7]: 2
Control of weed species after post-emergence application, ECHCG [8]: 4
Control of weed species after post-emergence application, LOLPE (Lolium perenne (LOLPE) [9]): 3
Control of weed species after post-emergence application, SETFA (Setaria faberi (SETFA) [10]): 5
Control of weed species after post-emergence application, TRAZW [11]: 1
Control of weed species after post-emergence application, AVEFA (Avena fatua (AVEFA) [12]): 2

CCC(=O)Nc1cnc(-c2cncc(F)c2)nc1C(F)(F)F [Compound F4]
Control of weed species after pre-emergence application, ALOMY [1]: 1
Control of weed species after pre-emergence application, AVEFA (Avena fatua (AVEFA) [2]): 3
Control of weed species after pre-emergence application, ECHCG [3]: 3
Control of weed species after pre-emergence application, LOLPE (Lolium perenne (LOLPE) [4]): 0
Control of weed species after pre-emergence application, SETFA (Setaria faberi (SETFA) [5]): 4
Control of weed species after pre-emergence application, TRAZW [6]: 0
Control of weed species after post-emergence application, ALOMY [7]: 0
Control of weed species after post-emergence application, ECHCG [8]: 4
Control of weed species after post-emergence application, LOLPE (Lolium perenne (LOLPE) [9]): 2
Control of weed species after post-emergence application, SETFA (Setaria faberi (SETFA) [10]): 4
Control of weed species after post-emergence application, TRAZW [11]: 1
Control of weed species after post-emergence application, AVEFA (Avena fatua (AVEFA) [12]): 4

O=C1CCCN1c1cnc(-c2cncc(F)c2)nc1C(F)(F)F [Compound F22]
Control of weed species after pre-emergence application, ALOMY [1]: 0
Control of weed species after pre-emergence application, AVEFA (Avena fatua (AVEFA) [2]): 0
Control of weed species after pre-emergence application, ECHCG [3]: 3
Control of weed species after pre-emergence application, LOLPE (Lolium perenne (LOLPE) [4]): 0
Control of weed species after pre-emergence application, SETFA (Setaria faberi (SETFA) [5]): 5
Control of weed species after pre-emergence application, TRAZW [6]: 0
Control of weed species after post-emergence application, ALOMY [7]: 0
Control of weed species after post-emergence application, ECHCG [8]: 5
Control of weed species after post-emergence application, LOLPE (Lolium perenne (LOLPE) [9]): 1
Control of weed species after post-emergence application, SETFA (Setaria faberi (SETFA) [10]): 5
Control of weed species after post-emergence application, TRAZW [11]: 1
Control of weed species after post-emergence application, AVEFA (Avena fatua (AVEFA) [12]): 3

COCC(=O)Nc1cnc(-c2cncc(F)c2)nc1C(F)(F)F [Compound F3]
Control of weed species after pre-emergence application, ALOMY [1]: 0
Control of weed species after pre-emergence application, AVEFA (Avena fatua (AVEFA) [2]): 2
Control of weed species after pre-emergence application, ECHCG [3]: 3
Control of weed species after pre-emergence application, LOLPE (Lolium perenne (LOLPE) [4]): 1
Control of weed species after pre-emergence application, SETFA (Setaria faberi (SETFA) [5]): 3
Control of weed species after pre-emergence application, TRAZW [6]: 0
Control of weed species after post-emergence application, ALOMY [7]: 0
Control of weed species after post-emergence application, ECHCG [8]: 4
Control of weed species after post-emergence application, LOLPE (Lolium perenne (LOLPE) [9]): 2
Control of weed species after post-emergence application, SETFA (Setaria faberi (SETFA) [10]): 4
Control of weed species after post-emergence application, TRAZW [11]: 1
Control of weed species after post-emergence application, AVEFA (Avena fatua (AVEFA) [12]): 4

From patent publication US20200267980A1, “Herbicidally Active Pyridyl-/Pyrimidyl-Pyrimidine Derivatives” (Syngenta Participations AG, priority 2017, published 2020)
